Results from paper PMC8100298, “Histone deacetylase inhibitor resminostat in combination with sorafenib counteracts platelet-mediated pro-tumoral effects in hepatocellular carcinoma” (Scientific Reports, 2021).
Like-named read-outs stand apart in the source and are kept apart here.

Assays:
Assay type in all cases: cell-based
PLC/PRF/5 = experiment: Proliferation assay; settings: for EC50: Homo sapiens, 96 h, 4 days
From the text: (§1) The cell lines HepG2 (ACC180, RRID:CVCL_0027; DMSZ, Braunschweig Germany), SNU-475 (CRL-2236, Lot. 58483227, RRID:CVCL_0497; ATCC, Manassas, Virginia, US), SNU-387 (CRL-2237, Lot. 58483192, RRID:CVCL_0250; ATCC, Virginia, US), PLC/PRF/5 (300315, Lot. 812, RRID:CVCL_0485; CLS Cell Lines Service GmbH, Eppelheim, Germany) and HuH-7 (JCRB0403, Lot. 2272008, RRID:CVCL_0336; JCRB Cell Bank, Japan) were propagated according to the distributor’s guidelines. The authenticity of the cell lines was confirmed by short tandem repeat (STR) analysis (DSMZ, Braunschweig, Germany). Mycoplasma contamination was ruled out by PCR testing. For assays with platelet lysate (PL), FBS was substituted with 10% PLTMax Human Platelet Lysate (Cat. Nr. SCM141, Lot Number VP1602259; Millipore, Burlington, Massachusetts, US). The PL was supplemented with 20 U/ml Heparin (Heparin sodium salt from porcine intestinal mucosa, H4784-250MG; Sigma-Aldrich, Taufkirchen, Germany) to prevent coagulation.
(§2) Prior to the assay, the optimal seeding density was determined for each cell line to obtain an exponential growth during the experiment (2000 to 6000 cells per 96-well). Drug dilution series with 8 concentrations were prepared for EC50 determinations of single drugs. Three wells for each concentration were seeded (technical replicates). For drug combinations, dilution series of six concentrations for each drug alone or in combination at equal ratio were prepared. After 4 h of cell seeding, the drugs were added to the cells. Each 96-well plate contained a vehicle control (0.1% or 0.2% DMSO), a death control Ro 106-9920 (Tocris Cookson Ltd., Bristol, UK) a growth control (untreated cells compared to vehicle treated cells), and blank wells without cells. The proliferation assay was stopped after 4 days by crystal violet staining of the cells (0.5% in 20% methanol). Following extraction of the crystal violet with 8% acetic acid, the eluates were quantified photometrically at 570 nm and the reference wavelength 690 nm in an absorbance microplate reader (Tecan Sunrise; Tecan, Männedorf, Switzerland). Only readouts from 96-well plates with a Z-factor between 0.5 and 1.0 were used. Blank OD values were subtracted from the mean OD values. Nonlinear curve fitting and EC50 calculation was performed with Excel Solver.

HuH-7 = experiment: Proliferation assay; settings: for EC50: Homo sapiens, 96 h, 4 days
From the text: as §1, §2

HepG2 = experiment: Proliferation assay; settings: for EC50: Homo sapiens, 96 h, 4 days
From the text: as §1, §2

BT20 = experiment: Efficacy screening assay; settings: BT20, breast
Procedure: (§3) The experiment was performed by Oncolead GmbH & Co. KG (Karlsfeld , Germany), based on a standardized screening procedure . Cell lines were purchased directly from the ATCC, NCI and DSMZ cell line c ollections. Cells used for the study had undergone less than 20 passages. To ensure the absence of potential contamination and wrong assignment, all cell lines were tested using a whole genome assay (Agilent, USA). All cell lines were grown as recommended by the suppliers and with addition of 100 U/mL penicillin G and 100 µg/mL; streptomycin. Cell growth and treatments were performed in Nunclon D 96 -well plates (NUNC, Germany). The optimal seeding density for each cell line was determined to ensure exponential growth for the duration of the experiment. All cells growing without anti-cancer agents were sub-conﬂuent by the end of the treatment, as determined by visual inspection.
(§4) After an initial 24 h pre-growth period, the compounds were added. The vehicle concentration […]
(§5) was 0.1% DMSO. After incubation at 37°C for 72 h, the culture medium was aspirated, and the cells were precipitated by the addition of 10% trichloroacetic acid (Sigma-Aldrich, Missouri, US). After overnight incubation at 4°C, the plates were washed three times with deionized water. The precipitates were then stained with SRB (0.4% wt/v sulforhodamine B solution in 1% acetic acid, Sigma-Aldrich, Missouri, US). Afterwards, the plates were washed six times with 1% acetic acid to remove unbound stain. After drying the plates at room temperature, the bound SRB was solubilized with 10 mM Tris base and the optical density was measured at 520 nm using a Victor2 plate reader (Perkin Elmer, Germany). Blank OD values were subtracted from mean OD values for each concentration. The nonlinear curve ﬁtting and EC50 calculations were per formed using XLﬁt and algorithm “205” (ID Business […]
(§6) one-way ANOVA and multiple comparison (Dunnett) was performed for compound treatments compared to vehicle control. The adjusted p-values with 95% confidence interval were reported as significant. For comparison of EC50 values in Figure 1F, one-way ANOVA with multiple comparison testing (Tukey) was performed. Multiplicity adjusted p -values for the EC50 with sorafenib versus resminostat for each cell line and comparison between cell lines for sorafenib are presented (95% confidence interval for significance testing). For comparison of EC50 data in Figure 2B, one-way ANOVA with multiple comparison testing (Tukey) was performed. Multiplicity adjusted p-values with 95% confidence interval was applied. For the invasion assays in Figure 4, one-way ANOVA with multiple comparison testing (Tukey) was performed. Multiplicity adjusted p-values with 95% confidence interval was applied. The adjusted p-values comparing vehicle control without vs. with platelets and compound

ASPC1 = experiment: Efficacy screening assay; settings: Homo sapiens, ASPC1, pancreas, 72 h
Procedure: as §3, §4, §5, §6

A549 = experiment: Efficacy screening assay; settings: A549, lung
Procedure: as §3, §4, §5, §6

CACO2 = experiment: Efficacy screening assay; settings: CACO2, colon
Procedure: as §3, §4, §5, §6

BXPC3 = experiment: Efficacy screening assay; settings: BXPC3, pancreas
Procedure: as §3, §4, §5, §6

A204 = experiment: Efficacy screening assay; settings: A204, muscle
Procedure: as §3, §4, §5, §6

With `CN(C)Cc1ccc(S(=O)(=O)n2ccc(/C=C/C(=O)NO)c2)cc1` [resminostat, Resminostat] the EC50 (PLC/PRF/5; PLC/PRF/5, fetal bovine serum, read-out: EC50 in FBS) was 1.1 ± 0.2 µM, the EC50 (PLC/PRF/5; PLC/PRF/5, platelet lysate, read-out: EC50 in PL) was 0.9 ± 0.1 µM and the “effect of platelet factors on potency and efficacy” value (PLC/PRF/5; PLC/PRF/5, platelet lysate vs FBS dose-response curves (Fig. 2A)) was “unaffected”. For the same compound, the “Ratio PL/FBS” value (PLC/PRF/5; PLC/PRF/5, ratio of PL/FBS EC50s) was 0.8, the EC50 (HuH-7; HuH-7, fetal bovine serum, read-out: EC50 in FBS) was 1 ± 0.3 µM and the EC50 (HuH-7; HuH-7, platelet lysate, read-out: EC50 in PL) was 1.3 ± 0.2 µM. For the same compound, the “Ratio PL/FBS” value (HuH-7; HuH-7, ratio of PL/FBS EC50s) was 1.3, the “Ratio PL/FBS” value (HepG2; HepG2, ratio of PL/FBS EC50s) was 1.0 and the EC50 (HepG2; HepG2, fetal bovine serum, read-out: EC50 in FBS) was 0.5 ± 0.1 µM. The EC50 (HepG2; HepG2, platelet lysate, read-out: EC50 in PL) was 0.5 ± 0.3 µM, the EC50 (BT20; 72 h, read-out: EC50) was 1.32 µM and the EC50 (BT20; Homo sapiens, BT-20, 72 h, log of EC50, negative, read-out: log(EC50) (converted)) was 1.32 µM. It also gave an EC50 (BT20; Homo sapiens, BT-20, 72 h, read-out: EC50) of 1.32 µM, an EC50 (ASPC1; log of EC50, negative, read-out: log(EC50) (converted)) of 1.66 µM and an EC50 (ASPC1; read-out: EC50) of 1.65 µM. For the same compound, the EC50 (A549; 72 h, read-out: EC50) was 3.5 µM, the EC50 (A549; Homo sapiens, A549, 72 h, log of EC50, negative, read-out: log(EC50) (converted)) was 3.47 µM and the EC50 (A549; Homo sapiens, A549, 72 h, read-out: EC50) was 3.5 µM. For the same compound, the EC50 (CACO2; 72 h, read-out: EC50) was 1.78 µM, the EC50 (CACO2; Homo sapiens, Caco-2, 72 h, log of EC50, negative, read-out: log(EC50) (converted)) was 1.78 µM and the EC50 (CACO2; Homo sapiens, Caco-2, 72 h, read-out: EC50) was 1.78 µM. It also gave an EC50 (BXPC3; 72 h, read-out: EC50) of 4.23 µM, an EC50 (BXPC3; Homo sapiens, BXPC-3, 72 h, log of EC50, negative, read-out: log(EC50) (converted)) of 4.27 µM and an EC50 (BXPC3; Homo sapiens, BXPC-3, 72 h, read-out: EC50) of 4.22 µM. The EC50 (A204; 72 h, read-out: EC50) was 0.91 µM, the EC50 (A204; Homo sapiens, A204, 72 h, log of EC50, negative, read-out: log(EC50) (converted)) was 0.912 µM and the EC50 (A204; Homo sapiens, A204, 72 h, read-out: EC50) was 0.906 µM.
